Assay results: patent publication US20250339391A1, “METHODS FOR EFFECTIVE MANAGEMENT OF PAIN” (South Rampart Pharma, Inc., priority 2024, published 2025)
“Also recorded” adds a separate entry of the source.

Legend:
[1] = test system: midbrain periaqueductal gray (PAG) cells; assay: Single-cell RNA sequencing of midbrain PAG in CFA-induced chronic inflammatory pain model; format: in vivo, rat; details: CFA rats; for expression of FAAH, CORO2A and RPL7L1 (scRNAseq): 100 mg/kg, 1 h
Procedure: Subsequently, we endeavored to explore the single-cell transcriptome of the eVF rat mid-brain PAG region to further define the mechanisms of action (MOA) of chronic inflammatory pain and, ultimately, SRP-001- and ApAP-mediated pain modulation. Left hind paws of Sprague Dawley rats were injected with 150 μl of 50% complete Freund's adjuvant (CFA), freshly diluted with sterile saline on the day of administration, to induce conspicuous long-standing inflammatory pain in the rats' hind paws, along with mechanical hyperalgesia tested using eVF. […].
Single-cell (scRNA) RNA sequencing. For cell nuclei isolation from the midbrain PAG, they were flash-frozen, dissected (by a cryotome), minced into small pieces, homogenized, filtered through 70 strainer and centrifuged. ReadiDrop 7-AAD cell viability dye (Bio-Rad) added, and flow sorted the live ([…]) nuclei in a BioRad Cell Sorter S3e using purity mode. Nuclei were counted using Nexcelom automated Cellometer with acridine orange/propidium iodide (AOPI) stain, and the Nuclei Stock Concentration used so that 10,000 nuclei could be targeted for each sample. […] Post library construction QC was performed using Agilent Bioanalyzer 2100 on High Sensitivity DNA chips, and after verification of sample traces, each library normalized based on the average fragment size, and the concentration determined using Qubit 4.0 fluorometer (Thermo Fisher Scientific). […]
Data processing. […] Read alignment, filtering, barcode counting, peak calling, and counting of both ATAC and GEX molecules were performed using cellranger-arc count. […] Only confidently mapped reads with valid barcodes, unique molecular identifiers (UMIs), and non-PCR duplicated were retained. The overall sequencing quality was evaluated by looking at the summary metrics of the web_summary.html file generated for each sample. […]

CD1 mice = details: for signs of hepatotoxicity: CD-1 mice; for animals dead in 48 hours: FIG. 1F experiment, data not shown
Procedure: After drug administration, animals were returned to their respective cages and maintained with food and water provided ad libitum for the next 12 h. Animals were then euthanized under 5% isoflurane anesthesia after 12 h, and whole blood samples were collected transcardially in sterile microcentrifuge tubes without anti-coagulants. Whole blood samples were stored at room temperature (25° C.) for 30 min, allowing them to coagulate, which was centrifuged at 1,000 g for 5 min at 4° C. to isolate serum samples from whole blood, which were collected, aliquoted, and stored at −80° C. for identification of NAPQI, and liver function tests (LFTs).
LFTs were done on fresh serum samples, and not on thawed frozen serum samples to avoid denaturing LFT transaminases due to freeze/thaw of frozen serum.
Employing a consistent lethal dose for both compounds streamline the experimental design and facilitates data interpretation. This approach aligns with FDA guidelines on Bioequivalence and Bioavailability studies for estimating the maximum safe starting dose in humans, a strategy further substantiated by others. At 12 h post-injection, mice were deeply anesthetized under 5% isoflurane for more than 5 min and formalin-fixed via transcardial perfusion with 10% Neutral Buffered Formalin (NBF) after exsanguination using 0.9% NaCl. Liver tissues were extracted and stored in NBF for 24 h post fixation, after which they were then transferred to 80% EtOH for storage prior to paraffin embedding, sectioning, and immunological staining. FFPE blocks were sectioned into 5 μm thick slices on regular frost-free plus slides and dried overnight on a slide warmer. After deparaffination, sections were stained with validated antibodies for nitrotyrosine and ZO-1 (tight junctions). […] Nitrotyrosine labeling was detected with 3′3′-Diaminobenzidine (DAB) staining, and nitrotyrosine labeled hepatic sections were imaged at 100× magnification in brightfield using a Nikon Eclipse TS100 microscope with NIS-Elements BR 3.0 software (NIKON Inc, Melville, NY, USA). Slides with ZO-1 staining were imaged in z-stacks obtained at 20× magnification using Olympus FV-1200 confocal microscope with Fluoview software FV10-ASW Version 04.02.02.09 (Olympus Corp Center Valley, PA, USA). Quantification of ZO-1 staining hepatic tight junctions was carried out by unbiassed image analysis calculating area sum of pixel^2 of the green channel staining ZO-lusing CellSens software (Olympus Corp Center Valley, PA, USA).

NAPQI = assay: LC-MS/MS identification of serum NAPQI and novel benzoquinoimine; format: in vivo, mouse; details: CD-1 mice, 600 mg/kg, IP or per os
Procedure: […] (NAPQI) was extracted from the serum by adding 3 volumes of ethyl-acetate to 1 volume of serum and storing them on ice for 30 min, followed by centrifugation at 3000 g for 30 min. Afterward, the supernatant was transferred into mass spectrometry vials and dried under N2 gas. The serum was then washed with another 3 volumes of ethyl-acetate, and the supernatant was added back to the same mass spectrometry vial, followed by evaporation under a stream of N2 gas. The sample was re-suspended with 50 μl of 1:1 MeOH:H2O for LC-MS/MS experimentation. The mass spectrophotometer was operated in multiple reaction monitoring (MRM) mode using positive ion electrospray. NAPQI was detected by monitoring the m/z transition 150.3→108.1. Pure NAPQI analytical standard (10 ng/mL) obtained from Cayman Chemical (Ann Arbor, MI) was used to characterize the full fragmentation pattern of NAPQI and determine the likely fragments.

## CC(=O)Nc1ccc(O)cc1 [ApAP, acetaminophen]
[1]
  expression of FAAH, CORO2A and RPL7L1 (scRNAseq): Downregulation
CD1 mice; CD1 mice, 600 mg/kg PO, 12 h, 600 mg/kg
  hepatic tight junctions by ZO-1 staining: significant reduction in ZO-1-stained tight junctions; also recorded: marked decrease in ZO-1
CD1 mice; 600 mg/kg
  signs of hepatotoxicity: hepatotoxicity is evident
CD1 mice
  animals dead in 48 hours: 75%
NAPQI
  serum NAPQI formation: a NAPQI peak is seen; also recorded: significantly enhanced

## CCN(CC)C(=O)c1ccccc1S(=O)(=O)NCC(=O)Nc1ccc(O)cc1 [SRP-001, N,N-diethyl-2-[[2-(4-hydroxyanilino)-2-oxo-ethyl]sulfamoyl]benzamide]
[1]
  expression of FAAH, CORO2A and RPL7L1 (scRNAseq): Downregulation
[1]; IPA analysis
  regulation of FAAH signaling genes: more significantly regulated by SRP-001 than ApAP
CD1 mice; CD1 mice, 600 mg/kg PO, 12 h
  centrilobular necrosis / nitrotyrosine staining of liver sections: lack nitrotyrosine staining
CD1 mice; CD1 mice, 600 mg/kg, serum
  liver transaminases ALT and AST: not observed
CD1 mice; 600 mg/kg
  signs of hepatotoxicity: no signs of hepatotoxicity
CD1 mice
  animals dead in 48 hours: none
CD1 mice; mouse, in vivo, 600 mg/kg
  TUNEL-positive apoptotic nuclei in liver sections: almost no TUNEL signal
NAPQI
  serum NAPQI formation: lack of formation of the toxic quinonimine metabolite NAPQI; also recorded: lack of production of NAPQI
